Test results taken from PubChem BioAssay AID330 (DTP/NCI, 2004).
“And” between values parts separate entries of the source, which are not always exact repeats. Equal entries are not always repeated. Inconclusive results and toxic doses are left out. How the source made its calls: active means survival T/C of 150% or more; inactive means T/C below 125% in these data.

Test system: P388 leukemia ip, CD2F1 mice, survival T/C
Assay: NCI In Vivo Anticancer Drug Screen. Data for tumor model P388 Leukemia (intraperitoneal) in CD2F1 (CDF1) mice
Details: endpoint: median survival time, higher = longer survival
Method in brief: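 Mice carrying the transplanted tumor received test compound or vehicle. Survival was recorded in each group, and the value is the treated-group measurement divided by that of the vehicle-treated control group.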

[1] = dose: 50.0 mg/kg/injection, schedule: Q01DX009 (ip), vehicle: saline with Tween-80
[2] = dose: 60.0 mg/kg/injection, schedule: Q01DX005 (ip), vehicle: saline with Tween-80
[3] = dose: 120.0 mg/kg/injection, schedule: Q01DX005 (ip), vehicle: saline with Tween-80
[4] = dose: 50.0 mg/kg/injection, schedule: Q01DX009 (ip), vehicle: saline
[5] = dose: 100.0 mg/kg/injection, schedule: Q01DX009 (ip), vehicle: saline
[6] = dose: 200.0 mg/kg/injection, schedule: Q01DX009 (ip), vehicle: saline
[7] = dose: 12.5 mg/kg/injection, schedule: Q01DX009 (ip), vehicle: saline with Tween-80
[8] = dose: 25.0 mg/kg/injection, schedule: Q01DX009 (ip), vehicle: saline with Tween-80

Measured: T/C

O=[N+]([O-])C1CCCCCCCCCCC1
inactive: dose: 100.0 mg/kg/injection, schedule: Q01DX001 (ip), vehicle: other 100 % of control | dose: 200.0 mg/kg/injection, schedule: Q01DX001 (ip), vehicle: other 100 % of control | dose: 400.0 mg/kg/injection, schedule: Q01DX001 (ip), vehicle: other 108 % of control

COc1ccc([N+](=O)[O-])c2ccc(C(=O)O)nc12
inactive: dose: 50.0 mg/kg/injection, schedule: Q01DX005 (ip), vehicle: saline 103 % of control | dose: 100.0 mg/kg/injection, schedule: Q01DX005 (ip), vehicle: saline 97 % of control | dose: 200.0 mg/kg/injection, schedule: Q01DX005 (ip), vehicle: saline 110 % of control

CCOC(=O)c1c(NC(=S)NC)sc(C)c1C
inactive: [1] 106 % of control | dose: 100.0 mg/kg/injection, schedule: Q01DX009 (ip), vehicle: saline with Tween-80 89 % of control | dose: 200.0 mg/kg/injection, schedule: Q01DX009 (ip), vehicle: saline with Tween-80 106 % of control

O=C(NC(Cc1cn(Cc2ccccc2)cn1)C(=O)O)OCC1c2ccccc2-c2ccccc21 (stereo unspecified)
inactive: dose: 50.0 mg/kg/injection, schedule: Q01DX005 (ip), vehicle: Klucel (hydroxypropylcellulose) (HPC) 104 % of control | dose: 100.0 mg/kg/injection, schedule: Q01DX005 (ip), vehicle: Klucel (hydroxypropylcellulose) (HPC) 98 % of control | dose: 200.0 mg/kg/injection, schedule: Q01DX005 (ip), vehicle: Klucel (hydroxypropylcellulose) (HPC) 99 % of control

CC[C@@H]1CN2CCc3c([nH]c4ccccc34)[C@@](C(=O)OC)(c3cc4c(cc3OC)N(C)[C@H]3[C@@](O)(C(=O)OC)[C@H](OC(C)=O)[C@]5(CC)C=CCN6CC[C@]43[C@@H]65)C[C@H](C2)[C@H]1O
active: dose: 32.0 mg/kg/injection, schedule: Q01DX001 (ip), vehicle: water 174 % of control | dose: 64.0 mg/kg/injection, schedule: Q01DX001 (ip), vehicle: water 150 % of control and 174 % of control
inactive: dose: 1.0 mg/kg/injection, schedule: Q01DX001 (ip), vehicle: water 115 % of control | dose: 2.0 mg/kg/injection, schedule: Q01DX001 (ip), vehicle: water 115 % of control | dose: 4.0 mg/kg/injection, schedule: Q01DX001 (ip), vehicle: water 117 % of control and 118 % of control

O=NNc1nc(-c2cccnc2)nc2ccccc12
inactive: dose: 1.25 mg/kg/injection, schedule: Q01DX009 (ip), vehicle: water 112 % of control | dose: 2.5 mg/kg/injection, schedule: Q01DX009 (ip), vehicle: water 110 % of control | dose: 5.0 mg/kg/injection, schedule: Q01DX009 (ip), vehicle: water 111 % of control | dose: 10.0 mg/kg/injection, schedule: Q01DX009 (ip), vehicle: water 100 % of control

CC1(C)CN(Cc2ccccc2)C1(C)C#N (stereo unspecified)
inactive: [2] 100 % of control | [3] 105 % of control

Clc1ccc2c(c1)C(c1ccccc1)=NCc1nncn1-2
inactive: dose: 25.0 mg/kg/injection, schedule: Q01DX009 (ip), vehicle: Klucel (hydroxypropylcellulose) (HPC) 103 % of control | dose: 50.0 mg/kg/injection, schedule: Q01DX009 (ip), vehicle: Klucel (hydroxypropylcellulose) (HPC) 95 % of control

OCC1CC12c1ccccc1-c1ccccc12 (stereo unspecified)
inactive: [2] 98 % of control | [3] 96 % of control | dose: 240.0 mg/kg/injection, schedule: Q01DX005 (ip), vehicle: saline with Tween-80 101 % of control

COc1cccc2c1C(=O)c1c(O)c3c(c(O)c1C2=O)C[C@@](O)(C(C)=O)C[C@@H]3OC1CC(N2CCSCC2)C(O)C(C)O1 (stereo partly specified)
active: dose: 50.0 mg/kg/injection, schedule: Q04DX003 (ip), vehicle: water 169 % of control
inactive: dose: 0.39 mg/kg/injection, schedule: Q04DX003 (ip), vehicle: distilled water + Tween-80 118 % of control | dose: 0.78 mg/kg/injection, schedule: Q04DX003 (ip), vehicle: distilled water + Tween-80 100 % of control | dose: 1.56 mg/kg/injection, schedule: Q04DX003 (ip), vehicle: distilled water + Tween-80 103 % of control | dose: 3.12 mg/kg/injection, schedule: Q04DX003 (ip), vehicle: distilled water + Tween-80 113 % of control | dose: 6.25 mg/kg/injection, schedule: Q04DX003 (ip), vehicle: distilled water + Tween-80 106 % of control | dose: 6.25 mg/kg/injection, schedule: Q04DX003 (ip), vehicle: water 105 % of control | dose: 12.5 mg/kg/injection, schedule: Q04DX003 (ip), vehicle: distilled water + Tween-80 123 % of control | dose: 12.5 mg/kg/injection, schedule: Q04DX003 (ip), vehicle: water 113 % of control | dose: 25.0 mg/kg/injection, schedule: Q04DX003 (ip), vehicle: distilled water + Tween-80 124 % of control | dose: 25.0 mg/kg/injection, schedule: Q04DX003 (ip), vehicle: water 123 % of control

Clc1ccc(CSSCc2ccc(Cl)cc2)cc1
inactive: dose: 12.5 mg/kg/injection, schedule: Q04DX003 (ip), vehicle: saline with Tween-80 100 % of control | dose: 25.0 mg/kg/injection, schedule: Q04DX003 (ip), vehicle: saline with Tween-80 100 % of control | dose: 50.0 mg/kg/injection, schedule: Q04DX003 (ip), vehicle: saline with Tween-80 100 % of control | dose: 100.0 mg/kg/injection, schedule: Q04DX003 (ip), vehicle: saline with Tween-80 107 % of control

Cc1ccc(C[n+]2cc3ccccc3cc2/C=N\O)cc1
inactive: dose: 50.0 mg/kg/injection, schedule: Q01DX005 (ip), vehicle: saline with Tween-80 98 % of control | dose: 100.0 mg/kg/injection, schedule: Q01DX005 (ip), vehicle: saline with Tween-80 109 % of control

CCNC(=O)/N=c1/sc([N+](=O)[O-])cn1CC(=O)N(C)C(=O)OCC
inactive: dose: 25.0 mg/kg/injection, schedule: Q01DX001 (ip), vehicle: saline 100 % of control | dose: 50.0 mg/kg/injection, schedule: Q01DX001 (ip), vehicle: saline 98 % of control | dose: 100.0 mg/kg/injection, schedule: Q01DX001 (ip), vehicle: saline 100 % of control

CC1=CCC2(C)CCC(C(C)C)C2(O)CC1 (stereo unspecified)
inactive: dose: 50.0 mg/kg/injection, schedule: Q04DX003 (ip), vehicle: saline 104 % of control | dose: 100.0 mg/kg/injection, schedule: Q04DX003 (ip), vehicle: saline 90 % of control | dose: 200.0 mg/kg/injection, schedule: Q04DX003 (ip), vehicle: saline 100 % of control

CC(=O)Nc1ccc(OCC(O)CNC(C)C)c(C(C)=O)c1 (stereo unspecified)
inactive: [4] 101 % of control | [5] 92 % of control | [6] 97 % of control

O=C(O)CCCCCCCCCc1ccccc1
inactive: [7] 100 % of control | [8] 97 % of control | [1] 95 % of control | [4] 97 % of control

CCOC(=O)C1C(O)CC2c3ccccc3-c3ccccc3C21 (stereo unspecified)
inactive: [2] 87 % of control | [3] 87 % of control

CCCCCCCCCCCCSCCSCCC
inactive: [4] 90 % of control | [5] 100 % of control | [6] 90 % of control

O=C(Nc1ccc(Cl)cc1)NN1CCCCCC1
inactive: dose: 25.0 mg/kg/injection, schedule: Q04DX002 (ip), vehicle: saline with Tween-80 103 % of control | dose: 50.0 mg/kg/injection, schedule: Q04DX002 (ip), vehicle: saline with Tween-80 98 % of control

O=C(c1ccccc1)N1CC2CCC1CN2C(=O)c1ccccc1
inactive: dose: 12.5 mg/kg/injection, schedule: Q01DX009 (ip), vehicle: other 105 % of control | dose: 25.0 mg/kg/injection, schedule: Q01DX009 (ip), vehicle: other 105 % of control | dose: 50.0 mg/kg/injection, schedule: Q01DX009 (ip), vehicle: other 100 % of control | dose: 100.0 mg/kg/injection, schedule: Q01DX009 (ip), vehicle: other 100 % of control | dose: 200.0 mg/kg/injection, schedule: Q01DX009 (ip), vehicle: other 105 % of control

CC(=O)OC1CC2C(C)(C)OC3CC(=O)OCC32C2CCC3(C)C(=CCC3c3ccoc3)C12C (stereo unspecified)
inactive: dose: 0.5 mg/kg/injection, schedule: Q01DX005 (ip), vehicle: saline + alcohol 108 % of control | dose: 1.0 mg/kg/injection, schedule: Q01DX005 (ip), vehicle: saline + alcohol 98 % of control | dose: 2.0 mg/kg/injection, schedule: Q01DX005 (ip), vehicle: saline + alcohol 106 % of control | dose: 4.0 mg/kg/injection, schedule: Q01DX005 (ip), vehicle: saline + alcohol 111 % of control | dose: 8.0 mg/kg/injection, schedule: Q01DX005 (ip), vehicle: saline + alcohol 108 % of control

Nc1c(Br)cc(Br)c2[nH]c(=O)c3ccccc3c12
inactive: [2] 116 % of control | [3] 106 % of control

C(=NCCCN=CC1CCCC[N-]1)C1CCCC[N-]1.[Cu+2].[O-][Cl+3]([O-])([O-])O (stereo unspecified)
inactive: dose: 3.12 mg/kg/injection, schedule: Q01DX009 (ip), vehicle: saline with Tween-80 103 % of control | dose: 6.25 mg/kg/injection, schedule: Q01DX009 (ip), vehicle: saline with Tween-80 101 % of control | [7] 103 % of control and 112 % of control | [8] 103 % of control
